Test results as given in ChEMBL document CHEMBL5380808, “Design, Synthesis, and Biological Activity of Marinacarboline Analogues as STAT3 Pathway Inhibitors for Docetaxel-Resistant Triple-Negative Breast Cancer” (J Med Chem, 2023).
Active and inactive are the calls of the source. The calls are words filed in the database; no cut-off is given here.

How the values were obtained:
[1] = Cytotoxicity against human MRC5 cells assessed as reduction in cell viability incubated for 72 hrs by sulforhodamine B assay; type: toxicity, cell-based
[2] = Synergistic antiproliferative activity against docetaxel-resistant human MDA-MB-231-DTR cells assessed as combination index at 4 uM incubated for 72 hrs in presence of 2 uM of docetaxel by Chou-Talalay method; type: functional
MDA-MB-231 [3] = test: Inhibition of cell migration in docetaxel-resistant human MDA-MB-231-DTR cells assessed as downregulation of Snail expression level at 3 to 6 uM incubated for 24 hrs by Western blot analysis; type: functional, cell-based; conditions: dose 3-6 µM
[4] = Induction of apoptosis in docetaxel-resistant human MDA-MB-231-DTR cells assessed as increase in total cell death at 2.5 uM incubated for 48 hrs by Annexin V-FITC and PI staining based flow cytometry; type: functional
[5] = Induction of cell cycle arrest in docetaxel-resistant human MDA-MB-231-DTR cells assessed as accumulation at G2/M phase at 5 uM incubated for 24 hrs by PI staining based flow cytometry analysis (reference value: 13.54%); type: functional
[6] = Induction of cell cycle arrest in docetaxel-resistant human MDA-MB-231-DTR cells assessed as accumulation at G2/M phase at 2.5 uM incubated for 36 hrs by PI staining based flow cytometry analysis (reference value: 13.16%); type: functional
MDA-MB-231 [7] = test: Inhibition of cell invasion in docetaxel-resistant human MDA-MB-231-DTR cells at 3 to 6 uM incubated for 24 hrs by transwell invasion assay; type: functional, cell-based; conditions: dose 3-6 µM
[8] = Antiproliferative activity against […] cells assessed as reduction in cell viability incubated for 72 hrs by MTT assay; type: functional, cell-based
MDA-MB-231 [9] = test: Inhibition of cell migration in docetaxel-resistant human MDA-MB-231-DTR cells assessed as downregulation of vimentin expression level at 3 to 6 uM incubated for 24 hrs by Western blot analysis; type: functional, cell-based; conditions: dose 3-6 µM
[10] = Synergistic antiproliferative activity against docetaxel-resistant human MDA-MB-231-DTR cells assessed as combination index at 4 uM incubated for 72 hrs in presence of 1 uM of docetaxel by Chou-Talalay method; type: functional
[11] = Induction of cell cycle arrest in docetaxel-resistant human MDA-MB-231-DTR cells assessed as accumulation at S phase at 10 uM incubated for 36 hrs by PI staining based flow cytometry analysis (reference value: 11.57%); type: functional
[12] = Induction of cell cycle arrest in docetaxel-resistant human MDA-MB-231-DTR cells assessed as accumulation at subG1 phase at 10 uM incubated for 36 hrs by PI staining based flow cytometry analysis (reference value: 0.52%); type: functional
[13] = Induction of cell cycle arrest in docetaxel-resistant human MDA-MB-231-DTR cells assessed as accumulation at S phase at 5 uM incubated for 36 hrs by PI staining based flow cytometry analysis (reference value: 11.57%); type: functional
[14] = target: Signal transducer and activator of transcription 3 (Homo sapiens) (UniProt P40763); test: Inhibition of STAT3 phosphorylation at Y705 residue in human MDA-MB-231 cells assessed as decrease in phosphorylated STAT3 level at 5 uM incubated for 24 hrs by Western blot analysis; type: cell-based
Signal transducer and activator of transcription 3 (Homo sapiens), sequence (P40763 whole entry): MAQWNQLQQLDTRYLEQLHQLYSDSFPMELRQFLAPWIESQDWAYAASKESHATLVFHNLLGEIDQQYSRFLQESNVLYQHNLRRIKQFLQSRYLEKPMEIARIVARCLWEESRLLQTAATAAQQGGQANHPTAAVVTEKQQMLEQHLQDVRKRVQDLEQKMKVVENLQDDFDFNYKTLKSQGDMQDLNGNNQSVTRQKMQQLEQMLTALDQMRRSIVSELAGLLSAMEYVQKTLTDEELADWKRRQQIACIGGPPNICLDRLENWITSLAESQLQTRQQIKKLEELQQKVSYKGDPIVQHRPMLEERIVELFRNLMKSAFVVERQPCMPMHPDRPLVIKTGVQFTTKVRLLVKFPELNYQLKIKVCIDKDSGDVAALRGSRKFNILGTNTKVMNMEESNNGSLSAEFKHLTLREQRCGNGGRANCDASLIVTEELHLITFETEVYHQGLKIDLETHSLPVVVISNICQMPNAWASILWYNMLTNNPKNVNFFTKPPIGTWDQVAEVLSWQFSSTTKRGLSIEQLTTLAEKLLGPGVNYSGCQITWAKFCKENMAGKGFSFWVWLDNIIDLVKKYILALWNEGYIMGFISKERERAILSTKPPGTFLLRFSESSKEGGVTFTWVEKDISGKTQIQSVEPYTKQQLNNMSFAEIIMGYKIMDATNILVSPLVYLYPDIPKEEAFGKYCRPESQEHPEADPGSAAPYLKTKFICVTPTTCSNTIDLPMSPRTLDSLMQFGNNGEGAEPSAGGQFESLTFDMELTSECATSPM

[15] = Induction of cell cycle arrest in docetaxel-resistant human MDA-MB-231-DTR cells assessed as accumulation at subG1 phase at 5 uM incubated for 36 hrs by PI staining based flow cytometry analysis (reference value: 0.41%); type: functional
[16] = Induction of cell cycle arrest in docetaxel-resistant human MDA-MB-231-DTR cells assessed as accumulation at G2/M phase at 5 uM incubated for 36 hrs by PI staining based flow cytometry analysis (reference value: 13.54%); type: functional
[17] = Induction of cell cycle arrest in docetaxel-resistant human MDA-MB-231-DTR cells assessed as accumulation at G2/M phase at 5 uM incubated for 36 hrs by PI staining based flow cytometry analysis (reference value: 13.16%); type: functional
MDA-MB-231 [18] = test: Induction of cell cycle arrest at G2/M phase in docetaxel-resistant human MDA-MB-231-DTR cells assessed as downregulation of Cdc25C expression level at 2.5 to 10 uM incubated for 36 hrs by Western blot analysis; type: functional, cell-based; conditions: dose 2.5-10 µM
[19] = Induction of cell cycle arrest in docetaxel-resistant human MDA-MB-231-DTR cells assessed as accumulation at G0/G1 phase at 2.5 uM incubated for 36 hrs by PI staining based flow cytometry analysis (reference value: 74.77%); type: functional
[20] = Antiproliferative activity against docetaxel-resistant human MDA-MB-231-DTR cells assessed as reduction in cell viability incubated for 72 hrs by sulforhodamine B assay; type: functional, cell-based; conditions: MDA-MB-231, 72 h
[21] = Induction of cell cycle arrest in docetaxel-resistant human MDA-MB-231-DTR cells assessed as accumulation at subG1 phase at 5 uM incubated for 12 hrs by PI staining based flow cytometry analysis (reference value: 0.41%); type: functional
[22] = target: T1, Signal transducer and activator of transcription 1-alpha/beta (Homo sapiens) (UniProt P42224); test: Inhibition of STAT1 phosphorylation at S727 residue in docetaxel-resistant human MDA-MB-231-DTR cells assessed as decrease in phosphorylated STAT1 level at 2.5 to 10 uM incubated for 24 hrs by Western blot analysis; type: cell-based; conditions: dose 2.5-10 µM
T1 sequence (whole entry): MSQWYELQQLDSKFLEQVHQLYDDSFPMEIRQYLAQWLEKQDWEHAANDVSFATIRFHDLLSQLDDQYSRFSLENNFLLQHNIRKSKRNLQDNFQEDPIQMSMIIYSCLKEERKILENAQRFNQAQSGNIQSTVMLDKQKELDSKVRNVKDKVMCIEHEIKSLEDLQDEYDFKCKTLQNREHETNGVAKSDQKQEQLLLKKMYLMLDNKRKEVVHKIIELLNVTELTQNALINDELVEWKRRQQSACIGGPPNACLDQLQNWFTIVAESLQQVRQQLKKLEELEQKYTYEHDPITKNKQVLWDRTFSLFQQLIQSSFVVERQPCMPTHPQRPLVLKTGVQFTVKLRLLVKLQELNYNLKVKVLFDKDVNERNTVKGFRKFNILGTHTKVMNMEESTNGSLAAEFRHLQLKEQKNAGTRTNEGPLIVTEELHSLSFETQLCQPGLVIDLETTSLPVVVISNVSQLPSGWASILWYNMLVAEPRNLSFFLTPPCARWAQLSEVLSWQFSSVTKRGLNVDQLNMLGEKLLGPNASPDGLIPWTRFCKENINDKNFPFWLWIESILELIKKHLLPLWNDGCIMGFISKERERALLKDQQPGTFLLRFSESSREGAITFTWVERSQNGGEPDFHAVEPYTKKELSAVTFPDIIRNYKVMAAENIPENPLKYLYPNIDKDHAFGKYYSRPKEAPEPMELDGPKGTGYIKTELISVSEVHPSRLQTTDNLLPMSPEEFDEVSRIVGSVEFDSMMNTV

[23] = Induction of cell cycle arrest in docetaxel-resistant human MDA-MB-231-DTR cells assessed as accumulation at subG1 phase at 5 uM incubated for 24 hrs by PI staining based flow cytometry analysis (reference value: 0.41%); type: functional

## O=C(NCCc1c[nH]c2ccccc12)c1cc2c([nH]c3ccccc32)c(C(=O)c2ccc(Br)cc2)n1
[1]
  IC50 at 72 h: 33.2 µM
[2]
  CI: 0.53
MDA-MB-231 [3]
  inhibition: Active
[4]
  Activity: 5.55%
[5]
  Activity: 21.18%
[6]
  Activity: 25.18%
MDA-MB-231 [7]
  inhibition: Dose-Dependent Effect
[8]
  IC50: 3.24 µM
MDA-MB-231 [9]
  inhibition: Active
[10]
  CI: 0.38
[11]
  Activity: 18.42%
[12]
  Activity: 2.51%
[13]
  Activity: 20.82%
[14]
  inhibition: Active
[15]
  Activity: 4.35%
[16]
  Activity: 26.59%
[17]
  Activity: 24.58%
MDA-MB-231 [18]
  Activity: Active
[19]
  Activity: 62.36%
[20]
  IC50: 2.96 µM
[21]
  Activity: 0.82%
[22]
  inhibition: inactive
[23]
  Activity: 1.75%
